Source: patent US20150252022A1, “RETINOIC ACID RECEPTOR-RELATED ORPHAN RECEPTOR MODULATORS AND USES THEREOF” (INNOV17 LLC, priority 2014, published 2015)

What was measured:
Type in all cases: cell-based
Details in all cases: 72 h; human CD4+ T cells under TH17-polarizing conditions, 3 days, supernatant ELISA
IL-17F = assay: Human TH17 Cytokine Inhibition as measured by ELISA (IL-17F)
Experimental: (§1) Peripheral blood mononuclear cells (PBMCs) were sourced from freshly prepared leukocyte enriched plasma (buffy coat) from healthy donors (New York Blood Center). PBMCs were isolated by density gradient centrifugation using Ficoll-Paque™ PLUS (GE Healthcare). Human CD4+ T cells were seeded into 96-well plates (5×10^4 cells/well) and activated with plate-bound anti-human (h)-CD3 antibody and soluble h-aCD28 (both at 1 ug/ml; eBioscience) and differentiated into TH17 cells with 20 ng/mL h-IL-6, 5 ng/mL h-TGF-β1, 10 ng/mL h-IL-23 (eBioscience) and 10 ng/mL IL-1β (Miltenyi Biotec) in serum-free TexMACS Medium (Miltenyi Biotec) supplemented with 1% Penicillin/Streptomycin (Lonza) for 3 days. CD4+ T cells propagated under TH17-polarizing conditions were cultured in the presence or absence of various concentrations of compounds with a final concentration of 0.1% DMSO. Supernatants were collected and stored at −20° C. until assayed for IL-17A, IL-17F and IL-21 levels by “Ready-Set-Go” ELISA kits (eBioscience) as per manufacturer's instructions. Endpoint absorbance was read at 450 nm using a microplate reader (Perkin Elmer).

IL-21 = assay: Human TH17 Cytokine Inhibition as measured by ELISA (IL-21)
Experimental: as §1

IL-17A = assay: Human TH17 Cytokine Inhibition as measured by ELISA (IL-17A)
Experimental: as §1

| Structure (SMILES) | IC50 (IL-17F) | IC50 (IL-21) | IC50 (IL-17A) |
| --- | --- | --- | --- |
| CC(C)C(=O)N1CC(CN2CCc3cc(-c4cn[nH]c4)ccc32)CC1C (stereo not drawn) [Example 30, 1-(4-((5-(1H-pyrazol-4-yl)indolin-1-yl)methyl)-2-methylpyrrolidin-1-yl)-2-methylpropan-1-one] | < 10 µM | < 10 µM | < 10 µM |
| O=C(Cc1ccccc1)N1CCC(CN2CCc3cc(-c4cn[nH]c4)ccc32)C1 (stereo not drawn) [Example 10, 1-(3-((5-(1H-pyrazol-4-yl)indolin-1-yl)methyl)pyrrolidin-1-yl)-2-phenylethanone] | < 10 µM | < 10 µM | < 10 µM |
| O=C(c1ccccc1)N1CCCC(CN2CCc3cc(-c4cn[nH]c4)ccc32)CC1 (stereo not drawn) [Example 54, (4-((5-(1H-pyrazol-4-yl)indolin-1-yl)methyl)azepan-1-yl)(phenyl)methanone] | < 10 µM | < 10 µM | < 10 µM |
| O=C(CC1CCCCC1)N1CCCC(CN2CCc3cc(-c4cn[nH]c4)ccc32)CC1 (stereo not drawn) [Example 57, 1-(4-((5-(1H-pyrazol-4-yl)indolin-1-yl)methyl)azepan-1-yl)-2-cyclohexylethanone] | < 10 µM | < 10 µM | < 10 µM |
| CC1CC(CN2CCc3cc(-c4cn[nH]c4)ccc32)CN1C(=O)CCc1ccccc1 (stereo not drawn) [Example 26, 1-(4-((5-(1H-pyrazol-4-yl)indolin-1-yl)methyl)-2-methylpyrrolidin-1-yl)-3-phenylpropan-1-one] | < 10 µM | < 10 µM | < 10 µM |
| CC(O)CC(=O)N1CCC(CN2CCc3cc(-c4cn[nH]c4)ccc32)CC1 (stereo not drawn) [Example 72, 1-(4-((5-(1H-pyrazol-4-yl)indolin-1-yl)methyl)piperidin-1-yl)-3-hydroxybutan-1-one] | > 10 µM | > 10 µM | > 10 µM |
| O=C(C1CCCCC1)N1CCC(CN2CCc3cc(-c4cn[nH]c4)ccc32)CC1 [Example 42, (4-((5-(1H-pyrazol-4-yl)indolin-1-yl)methyl)piperidin-1-yl)(cyclohexyl)methanone] | < 10 µM | < 10 µM | < 10 µM |
| CC(C)CC(=O)N1CC(CN2CCc3cc(-c4cn[nH]c4)ccc32)CC1C (stereo not drawn) [Example 29, 1-(4-((5-(1H-pyrazol-4-yl)indolin-1-yl)methyl)-2-methylpyrrolidin-1-yl)-3-methylbutan-1-one] | < 10 µM | < 10 µM | < 10 µM |
| CC1CC(CN2CCc3cc(-c4cn[nH]c4)ccc32)CN1C(=O)C1CCCCC1 (stereo not drawn) [Example 27, (4-((5-(1H-pyrazol-4-yl)indolin-1-yl)methyl)-2-methylpyrrolidin-1-yl)(cyclohexyl)methanone] | < 10 µM | < 10 µM | < 10 µM |
| O=C(C1CCCCC1)N1CCC(CN2CCc3cc(-c4cn[nH]c4)ccc32)C1 (stereo not drawn) [Example 12, (3-((5-(1H-pyrazol-4-yl)indolin-1-yl)methyl)pyrrolidin-1-yl)(cyclohexyl)methanone] | < 10 µM | > 10 µM | < 10 µM |
| CC(C)CNC(=O)N1CCC(CN2CCc3cc(-c4cnn(C(=O)NCC(C)C)c4)ccc32)CC1 [Example 74D, N-isobutyl-4-((5-(1-(isobutylcarbamoyl)-1H-pyrazol-4-yl)indolin-1-yl)methyl)piperidine-1-carboxamide] | < 10 µM | < 10 µM | < 10 µM |
| O=C(CC1CCCCC1)N1CCC(CN2CCc3cc(-c4cn[nH]c4)ccc32)CC1 [Example 43, 1-(4-((5-(1H-pyrazol-4-yl)indolin-1-yl)methyl)piperidin-1-yl)-2-cyclohexylethanone] | < 10 µM | < 10 µM | < 10 µM |
| O=C(c1ccccc1)N1CCC(CN2CCc3cc(-c4cn[nH]c4)ccc32)C1 (stereo not drawn) [Example 9, (3-((5-(1H-pyrazol-4-yl)indolin-1-yl)methyl)pyrrolidin-1-yl)(phenyl)methanone] | > 10 µM | > 10 µM | < 10 µM |
| CC1CC(CN2CCc3cc(-c4cn[nH]c4)ccc32)CN1C(=O)c1ccccc1 (stereo not drawn) [Example 24, (4-((5-(1H-pyrazol-4-yl)indolin-1-yl)methyl)-2-methylpyrrolidin-1-yl)(phenyl)methanone] | < 10 µM | < 10 µM | < 10 µM |

Other lines, results leading:

| IC50 (IL-17F) | IC50 (IL-21) | IC50 (IL-17A) | Structure (SMILES) |
| --- | --- | --- | --- |
| < 10 µM | < 10 µM | < 10 µM | O=C(CCCc1ccccc1)N1CCC(Cn2ccc3cc(-c4cn[nH]c4)ccc32)CC1 [Example 89, 1-(4-((5-(1H-pyrazol-4-yl)-1H-indol-1-yl)methyl)piperidin-1-yl)-4-phenylbutan-1-one] |
| < 10 µM | < 10 µM | < 10 µM | O=C(CCc1ccccc1F)N1CCC(Cn2ccc3cc(-c4cn[nH]c4)ccc32)CC1 [Example 95, 1-(4-((5-(1H-pyrazol-4-yl)-1H-indol-1-yl)methyl)piperidin-1-yl)-3-(2-fluorophenyl)propan-1-one] |
| < 10 µM | < 10 µM | < 10 µM | O=C(CCc1ccccc1)N1CCC(CN2CCCc3cc(-c4cn[nH]c4)ccc32)CC1 [Example 98, 1-(4-((6-(1H-pyrazol-4-yl)-3,4-dihydroquinolin-1(2H)-yl)methyl)piperidin-1-yl)-3-phenylpropan-1-one] |
| < 10 µM | < 10 µM | < 10 µM | Cc1cc2cc(-c3cn[nH]c3)ccc2n1CC1CCN(C(=O)CCc2ccccc2)CC1 [Example 132, 1-(4-((2-methyl-5-(1H-pyrazol-4-yl)-1H-indol-1-yl)methyl)piperidin-1-yl)-3-phenylpropan-1-one] |
| > 10 µM | < 10 µM | > 10 µM | NC(=O)Cn1cc(-c2ccc3c(ccn3CC3CCN(C(=O)CCc4ccccc4)CC3)c2)cn1 [Example 119, 2-(4-(1-((1-(3-phenylpropanoyl)piperidin-4-yl)methyl)-1H-indol-5-yl)-1H-pyrazol-1-yl)acetamide] |
| < 10 µM | < 10 µM | > 10 µM | O=C(CCc1cnccn1)N1CCC(Cn2ccc3cc(-c4cn[nH]c4)ccc32)CC1 [Example 90, 1-(4-((5-(1H-pyrazol-4-yl)-1H-indol-1-yl)methyl)piperidin-1-yl)-3-(pyrazin-2-yl)propan-1-one] |
| < 10 µM | < 10 µM | < 10 µM | O=C(CCc1ccccc1)N1CCC(Cn2ccc3cc(-c4c[nH]nn4)ccc32)CC1 [Example 112, 1-(4-((5-(1H-1,2,3-triazol-4-yl)-1H-indol-1-yl)methyl)piperidin-1-yl)-3-phenylpropan-1-one] |
| < 10 µM | < 10 µM | < 10 µM | CC1(C)CC(Cn2ccc3cc(-c4cn[nH]c4)ccc32)CN1C(=O)CC1CCCCC1 (stereo not drawn) [Example 111] |
| < 10 µM | > 10 µM | < 10 µM | CC(C)CC(=O)N1CCC(CN2CCc3cc(-c4cn[nH]c4)ccc32)CC1 [Example 44, 1-(4-((5-(1H-pyrazol-4-yl)indolin-1-yl)methyl)piperidin-1-yl)-3-methylbutan-1-one] |
| < 10 µM | < 10 µM | < 10 µM | O=C(NCc1ccccc1)N1CCC(CN2CCc3cc(-c4cn[nH]c4)ccc32)CC1 [Example 76, 4-((5-(1H-pyrazol-4-yl)indolin-1-yl)methyl)-N-benzylpiperidine-1-carboxamide] |
| < 10 µM | > 10 µM | < 10 µM | O=C(c1ccccc1)N1CCC(CN2CCc3cc(-c4cn[nH]c4)ccc32)CC1 [Example 39, (4-((5-(1H-pyrazol-4-yl)indolin-1-yl)methyl)piperidin-1-yl)(phenyl)methanone] |
| < 10 µM | < 10 µM | < 10 µM | Cn1cc(-c2ccc3c(ccn3CC3CCN(C(=O)CCc4ccccc4)CC3)c2)nn1 [Example 113, 1-(4-((5-(1-methyl-1H-1,2,3-triazol-4-yl)-1H-indol-1-yl)methyl)piperidin-1-yl)-3-phenylpropan-1-one] |
| < 10 µM | < 10 µM | < 10 µM | CC1(C)CC(Cn2ccc3cc(-c4cn[nH]c4)ccc32)CN1C(=O)CCc1ccccc1 (stereo not drawn) [Example 110] |
| < 10 µM | < 10 µM | < 10 µM | O=C(COc1ccccc1)N1CCC(Cn2ccc3cc(-c4cn[nH]c4)ccc32)CC1 [Example 92, 1-(4-((5-(1H-pyrazol-4-yl)-1H-indol-1-yl)methyl)piperidin-1-yl)-2-phenoxyethanone] |
| < 10 µM | < 10 µM | < 10 µM | Cc1ccc(-c2ccc3c(ccn3CC3CCN(C(=O)CCc4ccccc4)CC3)c2)nc1 [Example 122] |
| < 10 µM | < 10 µM | < 10 µM | O=C(C1CCCCC1)N1CCCC(Cn2ccc3cc(-c4cn[nH]c4)ccc32)CC1 (stereo not drawn) [Example 58, (4-((5-(1H-pyrazol-4-yl)-1H-indol-1-yl)methyl)azepan-1-yl)(cyclohexyl)methanone] |
| < 10 µM | < 10 µM | < 10 µM | O=C(Cc1ccccc1)N1CCC(CN2CCc3cc(-c4cn[nH]c4)ccc32)CC1 [Example 40, 1-(4-((5-(1H-pyrazol-4-yl)indolin-1-yl)methyl)piperidin-1-yl)-2-phenylethanone] |
| < 10 µM | < 10 µM | < 10 µM | O=C(CCc1ccc(F)cc1)N1CCC(Cn2ccc3cc(-c4cn[nH]c4)ccc32)CC1 [Example 93, 1-(4-((5-(1H-pyrazol-4-yl)-1H-indol-1-yl)methyl)piperidin-1-yl)-3-(4-fluorophenyl)propan-1-one] |
